# Reference: article PMC10505102 (Cellular and Molecular Life Sciences: CMLS, 2023)
# Where a SMILES comes first, the peptide text is derived from it. Bridges are numbered along the chain shown (N, C = ends).
# Assays:
# [1] = tested on: HEPG2 cells; conditions: HEPG2, aM1 up to 100 µM, 24 h, n=3
# Description: (§1) The MTT-containing culture medium was aspirated, and the formazan crystals were dissolved in DMSO for colorimetric quantification at 570 nm using a microplate reader (Tecan Magellan™, Switzerland) with a reference wavelength of 630 nm. DMSO was used as vehicle control, and 1% Triton X-100 was used as a cytotoxicity-inducing agent (positive control). Experimental triplicates were used for statistical analyses. […]
# (§2) including an alkaline environment (ammonium bicarbonate buffer, pH 8) with trypsin (A) and chymotrypsin (B) and simulated gastric fluid (0.1N HCl, pH 1.2) with pepsin f or 4h at 37°C (C) and respective buffers were used as vehicle controls. Peptide quantif ication was perf ormed using RP-HPLC, and data are shown as mean (± SD), calculated from experimental triplicates.
# (§3) 48h, and intact peptides were quantif ied using RP-HPLC. PBS was used as vehicle control.
# (§4) Data are presented as mean (± SD), calculated from individual experimental triplicates. E) […]
# (§5) Triton X 100 (TX -100) was used as a positive control f or cell death. (n=3, unpaired multiple t- […]
# (§6) F) LDH release-based cytotoxicity and plasma membrane damaging analysis of […]
# (§7) (n=3, unpaired multiple t-test with Holm-
# [2] = tested on: C2C12 cells; conditions: C2C12, aM1 up to 100 µM, 24 h, n=3
# Description: as §1, §2, §3, §4, §5, §6, §7
# [3] = tested on: 3T3-L1 cells; conditions: 3T3-L1, aM1 up to 100 µM, 24 h, n=3
# Description: as §1, §2, §3, §4, §5, §6, §7
# [4] = tested on: mammalian cells; conditions: aM1 up to 100 µM, 24 h, n=3
# Description: DMSO was used as the vehicle control. […]
# as §2, §3, §4, §5, §6, §7
# [5] = tested on: CHO-K1 cells; conditions: concentrations up to 200 µM; cited from earlier work
# [6] = tested on: C2C12-myotubes, 3T3-L1-adipocytes, and HEPG2 cells; assay: Glucose uptake with insulin receptor inhibitor HNMPA; assay type: cell-based; conditions: 100 µM HNMPA 1 h; 100 nM insulin 30 min
# Description: (§8) The relative glucose uptake in each group is expressed as fold-change relative to the respective PBS-treated control groups.
# (§9) Akt activation-mediated signaling was inhibited using the Akt-inhibitor GSK690693. Hydroxy-2-naphthalenylmethylphosphonic acid (HNMPA) was used to block insulin receptor activation. […] PBS was used for mock-treated groups. All experiments had at least three independent replicates.
# (§10) Assays were performed in triplicate.
# [7] = tested on: C2C12 myotubes, 3T3-L1 adipocytes, and HEPG2 cells; assay: Glucose uptake with Akt inhibitor GSK690693; assay type: cell-based; conditions: 2.5 µM GSK690693 1 h; 20 µM aM1 24 h pretreated or 100 nM insulin 30 min
# Description: as §8, §9, §10
# [8] = tested on: IRS1/2 in insulin-resistant C2C12 myotubes; assay: Western blot of IRS1/2 level and IRS1 phosphorylation; conditions: IR myotubes; insulin 30 min, with or without aM1 24 h pretreatment
# Description: A Western blots showing the relative protein levels of IRS1/2 in insulin-resistant (IR.) C2C12-myotubes. […] B IRS1/2 gene expression analyzed by RT-qPCR under respective experimental conditions. Data for each group were normalized and represented the fold change relative to the PBS control group. […] Western blots of IRS1 at S318 (C) and S1101 D phosphorylation levels.
# (§11) Each protein sample (30 µg) was resolved on a 10% acrylamide gel and transferred onto a PVDF membrane. Immunoblotting was performed using anti-protein antibodies and detected with an ECL system.
# [9] = tested on: GLUT4; assay: GLUT4 translocation assay (Myc-GLUT4-mCherry C2C12); assay type: cell-based, mouse; conditions: 20 μM aM1 24 h; 100 nM insulin 30 min
# Description: In skeletal muscles and adipocytes, insulin-induced glucose uptake is predominantly mediated by GLUT4 glucose transporters. […] We determined GLUT4-mediated glucose uptake using a stable C2C12 cell line expressing Myc-GLUT4-mCherry fusion protein that has a Myc epitope attached to the first N-terminal exofacial loop in GLUT4 and a mCherry fusion at the GLUT4 C terminus that allows detection of membrane-embedded GLUT4 under nonpermeabilized conditions (Fig. S6D).
# The GLUT4 translocation assay was adapted from a published protocol. The pEGFP-myc-GLUT4-mCherry recombinant construct for GLUT4 fusion protein was generated using the pLenti-myc-GLUT4-mCherry plasmid (Addgene plasmid #64049). C2C12 cells were transfected with the recombinant plasmid using a Lipofectamine 3000 Transfection Kit (Thermo Scientific, USA). Stably transfected cells were selected and grown for further assays. […] The positive control group was treated with 100 nM insulin for 30 min, and the mock control was treated with PBS. After treatment, the culture medium was aspirated, and the cells were washed three times with PBS. Nonpermeabilized cells were immediately fixed with 10% formalin for 30 min, washed, and blocked with 1% BSA for 1 h at RT. After blocking, the cells were incubated with Alexa Fluor 488-conjugated c-Myc antibodies overnight at 4 °C. […]
# [10] = tested on: C2C12 cells; assay: Glucose consumption assay (colorimetric); conditions: C2C12, 1 h; 20 µM aM1 (24 h pretreated) or 100 nM insulin; glucose assay kit, n = 3
# Description: Glucose consumption was estimated by depleting glucose levels of the growth medium using a glucose assay kit. […] Relative glucose uptake was measured in wild-type (top) and insulin-resistant (bottom) C2C12-myotubes and 3T3-L1-adipocytes using a 2NBDG uptake assay to estimate the glucose consumption of cells treated with the respective compounds.
# Glucose consumption was estimated by measuring the depletion of glucose levels in the growth medium over time. Glucose quantification was carried out using a glucose assay kit (Sigma, USA). […] After glucose introduction, glucose levels in the culture medium at 0 and 60 min were estimated colorimetrically at an absorbance wavelength of 570 nm. The protein content of each well was measured with a BCA protein assay to normalize glucose uptake results. Statistical significance was calculated based on three individual assays.
# [11] = tested on: PI3K/Akt signaling in wild-type C2C12 myotubes; assay: Western blot of PI3K/Akt signaling; conditions: WT C2C12 myotubes; aM1 24 h; insulin 30 min
# Description: C–D Data in each group were normalized with respect to GAPDH expression and stated as fold-change relative to PBS control cells for WT C2C12-myotubes (panel C) and IR C2C12-myotubes (panel D).
# as §11
# [12] = tested on: insulin-resistant 3T3-L1-adipocytes; assay: 2-NBDG glucose uptake, fluorometric; assay type: cell-based, mouse; conditions: 20 µM aM1 or pioglitazone 24 h, 100 nM insulin 30 min
# Description: 3T3-L1 cells were maintained in growth medium (high-glucose DMEM [Dulbecco's modified Eagle's medium; Gibco], 10% FBS (fetal bovine serum; Gibco) and 1% penicillin/streptomycin (Gibco)]). Confluent 3T3-L1 fibroblast cells were then incubated with MDI induction medium (1 μM dexamethasone, 0.5 mM IBMX (isobutylmethylxanthine), and 100 nM insulin in high-glucose DMEM containing 10% FBS. At 2 days post-confluence and 2 days after exposure to the MDI induction medium, the medium was replaced with 100 nM insulin containing high-glucose DMEM supplemented with 10% FBS. Thereafter, the medium was replaced with a growth medium every 2 days to maintain the cells in culture. Cells were maintained in a 100 nM insulin-containing growth medium for the insulin-resistant phenotype. Differentiation was confirmed with Oil Red to visualize lipid droplets (Fig. S13C). […]
# Glucose uptake was measured using 2-NBDG, a fluorescently labeled deoxyglucose analog. […] Fluorometric quantification was performed using a microplate reader (Tecan Magellan™, Switzerland) with excitation and emission wavelengths of 467 nm and 542 nm, respectively. Protein content was measured with a BCA protein assay to normalize fluorometric results. […] Images were captured using the green fluorescence channel of a Nikon ECLIPSE Ti-S inverted microscope system (Nikon, Kanagawa, Japan). […]
# [13] = tested on: PI3K/Akt signaling in wild-type 3T3-L1 adipocytes; assay: Western blot of PI3K/Akt signaling; conditions: WT 3T3-L1 adipocytes
# Description: as §11
# Data in each g roup were normalized and expressed as a fold of PBS-
# treated respective control cells. Each bar represents mean ± SD ( n=3, analysis of variance
# (ANOVA) with Tukey's multiple comparisons test). *p<0.05 versus PBS-control groups and
# #p<0.05 versus INS-treated groups.
# [14] = tested on: Akt in insulin-resistant-C2C12 myotubes; assay: Western blot of insulin-mediated Akt phosphorylation after aM1 pretreatment; conditions: IR myotubes, no aM1 pretreatment
# Description: A Relative insulin sensitivity in insulin-resistant (IR) myotubes and adipocytes. […] Glucose uptake of cells after insulin stimulation was quantified using a 2NBDG assay to estimate relative insulin sensitivity, which is expressed as the mean value (± SD) of three independent experimental replicates (analysis of variance (ANOVA) with Sidak's multiple comparisons test). *p < 0.05 compared to PBS control and ^#p < 0.05 compared to INS control. […] GAPDH served as a loading control. […] E RT-qPCR analysis of normal proximal insulin signaling genes in IR myotubes. […] Data are expressed as mean ± SEM (n = 4, ANOVA with Sidak's multiple comparisons test). *p < 0.05 versus control groups
# as §11
compound,measurement,setting,value
"CC[C@H](C)[C@H](NC(=O)[C@@H]1CSSC[C@@H]2NC(=O)[C@@H]3CCCN3C(=O)[C@@H]3CCCN3C(=O)[C@H](C(C)C)NC(=O)[C@H](CCC(=O)O)NC(=O)[C@H](Cc3ccccc3)NC(=O)[C@@H]3CCCN3C(=O)[C@H](CO)NC(=O)[C@@H]3CSSC[C@H](NC(=O)[C@H](CCCNC(=N)N)NC(=O)[C@H](CSSC[C@H](NC(=O)[C@H](CC(=O)O)NC(=O)[C@@H](N)C(C)C)C(=O)N[C@@H](CO)C(=O)NCC(=O)N[C@@H](C)C(=O)N3)NC(=O)[C@H](CC(=O)O)NC(=O)[C@H](CCCNC(=N)N)NC(=O)[C@H](CO)NC(=O)CNC2=O)C(=O)N[C@@H]([C@@H](C)CC)C(=O)N2CCC[C@H]2C(=O)N[C@@H]([C@@H](C)CC)C(=O)NCC(=O)N[C@@H](CC(C)C)C(=O)N[C@@H](C(C)C)C(=O)N[C@@H](C(C)C)C(=O)NCC(=O)N[C@@H](Cc2ccccc2)C(=O)N1)C(=O)N[C@@H](Cc1ccc(O)cc1)C(=O)N1CCC[C@H]1C(=O)N[C@H](C(=O)NCC(=O)O)[C@@H](C)O [aM1] (H-VDCSGACSPFEVPPCGSRDCRCIPIGLVVGFCIYPTG-OH; disulfide 3-20, 7-22, 15-32)",cell viability (MTT),[1],No substantial changes in cell viability
same,cell viability (MTT),[2],No substantial changes in cell viability
same,cell viability (MTT),[3],No substantial changes in cell viability
same,LDH release (membranolytic or cytotoxic effects),[4],no significant membranolytic or cytotoxic effects
same,toxicity to CHO-K1 cells,[5],no toxicity
"O=P(O)(O)C(O)c1ccc2ccccc2c1 (stereo not drawn) [HNMPA, hydroxy-2-naphthalenylmethylphosphonic acid]",insulin-mediated glucose uptake on HNMPA treatment,[6],completely blocked
CCn1c(-c2nonc2N)nc2c(C#CC(C)(C)O)ncc(OC[C@H]3CCCNC3)c21 [GSK690693],insulin- and aM1-mediated glucose uptake on co-treatment with GSK690693,[7],inhibited
insulin,IRS1 phosphorylation at Ser318,[8],increased significantly
same,"surface GLUT4 (anti-Myc fluorescence, nonpermeabilized cells) vs PBS control",[9],increased amounts of GLUT4 at the cell surface
same,increase in glucose consumption compared to untreated control cells,[10],similar
same,total Akt expression,[11],no significant differences
same,increase in glucose uptake relative to untreated cells,[12],remained at basal levels
same,PDK1 phosphorylation at Ser242,[13],significant increase
same,total Akt expression,[13],no significant differences
same,"Akt phosphorylation at Ser473, increase relative to untreated cells",[13]; n=3,expected Akt phosphorylation was observed
same,"Akt phosphorylation at Thr308, increase relative to untreated cells",[13]; n=3,expected Akt phosphorylation was observed
same,phosphorylated Akt levels after insulin stimulation alone,[14],remained at basal levels
CCc1ccc(CCOc2ccc(CC3SC(=O)NC3=O)cc2)nc1 (stereo not drawn) [pioglitazone],increase in glucose uptake relative to untreated cells,[12],1.6 fold
